Data published in patent publication EP4722207A1, “OXOISOINDOLINYL-SUBSTITUTED TETRAHYDROPYRIMIDINEDIONE DERIVATIVE AND USE THEREOF” (Gluetacs Therapeutics (Shanghai) Co., Ltd., priority 2023, dated 2024).

What was measured:
Format in all cases: cell-based
Details in all cases: compounds at 50 nM and 500 nM, 24 hours
IKZF2 = target: T1, IKZF2 (Homo sapiens, UniProt Q96SW2+Q9UKS7); test: Western-blot assay, substrate protein degradation in hPBMCs: IKZF2
T1 construct: effects of the compounds of the present disclosure on the expression of target proteins in cells; endogenous in cells; host or cells: human PBMCs (hPBMCs)

IKZF3 = target: T2, IKZF3 (Homo sapiens, UniProt Q96SW2+Q9UKT9); test: Western-blot assay, substrate protein degradation in hPBMCs: IKZF3
T2 construct: effects of the compounds of the present disclosure on the expression of target proteins in cells; endogenous in cells; host or cells: human PBMCs (hPBMCs)

WEE1 = target: T3, WEE1 (Homo sapiens, UniProt P30291+Q96SW2); test: Western-blot assay, substrate protein degradation in hPBMCs: WEE1
T3 construct: effects of the compounds of the present disclosure on the expression of target proteins in cells; endogenous in cells; host or cells: human PBMCs (hPBMCs)

GSPT1 = target: T4, GSPT1 (Homo sapiens, UniProt P15170+Q96SW2); test: Western-blot assay, substrate protein degradation in hPBMCs: GSPT1
T4 construct: effects of the compounds of the present disclosure on the expression of target proteins in cells; endogenous in cells; host or cells: human PBMCs (hPBMCs)

IKZF1 = target: T5, IKZF1 (Homo sapiens, UniProt Q13422+Q96SW2); test: Western-blot assay, substrate protein degradation in hPBMCs: IKZF1
T5 construct: effects of the compounds of the present disclosure on the expression of target proteins in cells; endogenous in cells; host or cells: human PBMCs (hPBMCs)

CK1α = target: T6, CK1α (Homo sapiens, UniProt P48729+Q96SW2); test: Western-blot assay, substrate protein degradation in hPBMCs: CK1α
T6 construct: effects of the compounds of the present disclosure on the expression of target proteins in cells; endogenous in cells; host or cells: human PBMCs (hPBMCs)
T6 sequence (P48729 whole entry): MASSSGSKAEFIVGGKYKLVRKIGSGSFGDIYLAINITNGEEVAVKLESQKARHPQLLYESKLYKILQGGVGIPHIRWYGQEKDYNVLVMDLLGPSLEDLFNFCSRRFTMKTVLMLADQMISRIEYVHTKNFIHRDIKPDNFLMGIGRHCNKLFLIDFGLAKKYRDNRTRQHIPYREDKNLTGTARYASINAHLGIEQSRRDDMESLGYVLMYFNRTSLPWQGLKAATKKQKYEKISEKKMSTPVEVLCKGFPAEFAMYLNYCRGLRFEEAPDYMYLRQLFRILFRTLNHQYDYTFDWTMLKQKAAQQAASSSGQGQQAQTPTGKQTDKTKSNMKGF
T6 sequence (Q96SW2 whole entry): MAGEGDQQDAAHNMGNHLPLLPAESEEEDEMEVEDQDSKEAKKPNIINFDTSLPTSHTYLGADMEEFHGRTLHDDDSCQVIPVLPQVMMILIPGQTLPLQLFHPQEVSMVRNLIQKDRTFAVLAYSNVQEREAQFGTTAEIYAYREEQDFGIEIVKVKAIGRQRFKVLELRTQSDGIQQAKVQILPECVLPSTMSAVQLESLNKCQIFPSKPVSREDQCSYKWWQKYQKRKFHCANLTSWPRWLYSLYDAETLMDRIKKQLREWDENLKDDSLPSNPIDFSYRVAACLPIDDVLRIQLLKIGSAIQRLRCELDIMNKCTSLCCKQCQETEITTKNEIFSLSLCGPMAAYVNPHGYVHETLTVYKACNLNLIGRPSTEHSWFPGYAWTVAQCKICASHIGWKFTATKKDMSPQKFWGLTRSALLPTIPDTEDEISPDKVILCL
T6 sequence (Q16531 whole entry partner): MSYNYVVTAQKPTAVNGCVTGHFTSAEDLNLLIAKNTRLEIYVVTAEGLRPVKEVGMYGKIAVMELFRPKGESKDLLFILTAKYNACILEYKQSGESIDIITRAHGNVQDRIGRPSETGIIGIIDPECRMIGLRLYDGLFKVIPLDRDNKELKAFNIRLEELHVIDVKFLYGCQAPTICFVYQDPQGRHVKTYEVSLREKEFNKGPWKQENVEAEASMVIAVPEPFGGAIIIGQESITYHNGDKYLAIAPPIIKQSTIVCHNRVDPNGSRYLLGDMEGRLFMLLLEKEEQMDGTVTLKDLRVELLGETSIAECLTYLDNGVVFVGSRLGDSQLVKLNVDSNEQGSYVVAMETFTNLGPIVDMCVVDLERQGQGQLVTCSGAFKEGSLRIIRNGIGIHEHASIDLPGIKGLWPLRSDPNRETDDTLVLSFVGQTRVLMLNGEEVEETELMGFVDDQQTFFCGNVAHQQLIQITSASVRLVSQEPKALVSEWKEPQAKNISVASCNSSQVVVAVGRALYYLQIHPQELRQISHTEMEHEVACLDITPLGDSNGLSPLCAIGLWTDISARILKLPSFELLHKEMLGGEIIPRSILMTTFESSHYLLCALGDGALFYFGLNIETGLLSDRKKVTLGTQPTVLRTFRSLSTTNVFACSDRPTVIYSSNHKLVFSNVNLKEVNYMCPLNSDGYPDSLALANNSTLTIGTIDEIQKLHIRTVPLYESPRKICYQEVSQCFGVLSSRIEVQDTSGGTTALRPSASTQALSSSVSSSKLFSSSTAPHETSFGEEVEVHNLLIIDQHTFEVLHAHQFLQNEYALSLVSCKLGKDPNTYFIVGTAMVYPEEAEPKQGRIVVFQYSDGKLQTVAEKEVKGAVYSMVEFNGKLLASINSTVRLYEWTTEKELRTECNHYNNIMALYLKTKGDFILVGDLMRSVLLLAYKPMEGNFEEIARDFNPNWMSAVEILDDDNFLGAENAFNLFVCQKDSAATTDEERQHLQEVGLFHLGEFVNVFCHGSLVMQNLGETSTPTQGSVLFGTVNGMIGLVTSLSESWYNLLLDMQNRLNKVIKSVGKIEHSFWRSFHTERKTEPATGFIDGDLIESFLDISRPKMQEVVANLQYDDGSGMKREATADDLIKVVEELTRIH

T2 sequence (Q9UKT9 whole entry): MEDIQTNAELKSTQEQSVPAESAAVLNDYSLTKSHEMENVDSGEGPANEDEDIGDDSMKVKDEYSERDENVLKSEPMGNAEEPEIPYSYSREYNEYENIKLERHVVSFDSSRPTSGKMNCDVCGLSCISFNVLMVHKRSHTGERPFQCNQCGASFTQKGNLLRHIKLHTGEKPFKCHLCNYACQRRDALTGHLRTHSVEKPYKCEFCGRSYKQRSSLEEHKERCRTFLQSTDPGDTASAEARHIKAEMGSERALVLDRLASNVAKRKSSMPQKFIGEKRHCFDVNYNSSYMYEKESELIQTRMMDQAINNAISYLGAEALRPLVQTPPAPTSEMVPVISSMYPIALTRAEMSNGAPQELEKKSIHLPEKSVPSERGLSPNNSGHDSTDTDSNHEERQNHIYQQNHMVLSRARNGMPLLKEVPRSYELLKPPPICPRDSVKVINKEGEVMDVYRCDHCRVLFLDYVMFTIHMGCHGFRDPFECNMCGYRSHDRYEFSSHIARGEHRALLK
T2 sequence (Q96SW2 whole entry): as the sequence (Q96SW2 whole entry) above
T2 sequence (Q16531 whole entry partner): as the sequence (Q16531 whole entry partner) above
T1 sequence (Q9UKS7 whole entry): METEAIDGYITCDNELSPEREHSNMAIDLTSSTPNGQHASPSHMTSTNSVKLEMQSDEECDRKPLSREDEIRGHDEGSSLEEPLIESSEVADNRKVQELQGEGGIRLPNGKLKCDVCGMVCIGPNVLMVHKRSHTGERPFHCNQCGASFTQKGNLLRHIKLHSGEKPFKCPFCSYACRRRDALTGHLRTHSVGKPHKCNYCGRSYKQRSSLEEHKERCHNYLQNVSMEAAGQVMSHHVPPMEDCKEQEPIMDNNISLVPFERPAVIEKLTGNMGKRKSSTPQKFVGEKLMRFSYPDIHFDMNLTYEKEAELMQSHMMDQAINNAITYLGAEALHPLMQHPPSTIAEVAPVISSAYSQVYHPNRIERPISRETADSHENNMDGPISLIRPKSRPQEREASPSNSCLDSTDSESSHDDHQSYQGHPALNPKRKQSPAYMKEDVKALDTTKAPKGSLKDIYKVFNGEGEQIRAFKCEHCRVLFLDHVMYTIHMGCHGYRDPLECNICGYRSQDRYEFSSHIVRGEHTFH
T1 sequence (Q96SW2 whole entry): as the sequence (Q96SW2 whole entry) above
T1 sequence (Q16531 whole entry partner): as the sequence (Q16531 whole entry partner) above
T4 sequence (P15170 whole entry): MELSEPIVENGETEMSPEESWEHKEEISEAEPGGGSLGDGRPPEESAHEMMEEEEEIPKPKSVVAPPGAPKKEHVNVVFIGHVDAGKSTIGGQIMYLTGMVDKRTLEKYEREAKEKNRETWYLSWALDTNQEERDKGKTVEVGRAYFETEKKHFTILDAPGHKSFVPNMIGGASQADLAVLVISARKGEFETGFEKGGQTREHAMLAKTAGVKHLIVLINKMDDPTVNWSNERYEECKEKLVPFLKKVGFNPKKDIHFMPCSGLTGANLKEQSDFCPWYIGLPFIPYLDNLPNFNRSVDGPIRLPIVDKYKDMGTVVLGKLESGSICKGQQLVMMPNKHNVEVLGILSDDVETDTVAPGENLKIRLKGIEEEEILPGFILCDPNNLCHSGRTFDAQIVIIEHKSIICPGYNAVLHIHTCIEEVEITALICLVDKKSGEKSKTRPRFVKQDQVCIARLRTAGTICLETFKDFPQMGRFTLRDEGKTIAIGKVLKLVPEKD
T4 sequence (Q96SW2 whole entry): as the sequence (Q96SW2 whole entry) above
T4 sequence (Q16531 whole entry partner): as the sequence (Q16531 whole entry partner) above
T5 sequence (Q13422 whole entry): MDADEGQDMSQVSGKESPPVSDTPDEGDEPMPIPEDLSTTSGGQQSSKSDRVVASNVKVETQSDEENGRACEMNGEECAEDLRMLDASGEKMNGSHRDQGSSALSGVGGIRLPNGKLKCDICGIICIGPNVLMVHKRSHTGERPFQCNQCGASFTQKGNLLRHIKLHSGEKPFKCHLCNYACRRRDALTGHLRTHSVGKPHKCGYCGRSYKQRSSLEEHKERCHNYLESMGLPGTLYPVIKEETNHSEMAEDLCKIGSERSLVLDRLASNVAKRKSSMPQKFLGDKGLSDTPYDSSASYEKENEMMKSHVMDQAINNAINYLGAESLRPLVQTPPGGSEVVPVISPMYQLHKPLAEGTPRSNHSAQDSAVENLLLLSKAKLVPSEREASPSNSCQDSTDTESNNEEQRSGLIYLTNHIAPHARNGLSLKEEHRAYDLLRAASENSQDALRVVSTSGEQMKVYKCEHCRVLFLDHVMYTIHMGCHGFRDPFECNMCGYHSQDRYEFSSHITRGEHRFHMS
T5 sequence (Q96SW2 whole entry): as the sequence (Q96SW2 whole entry) above
T5 sequence (Q16531 whole entry partner): as the sequence (Q16531 whole entry partner) above

| Compound | IKZF2 substrate protein remaining % (IKZF2) | IKZF3 substrate protein remaining % (IKZF3) | WEE1 substrate protein remaining % (WEE1) | GSPT1 substrate protein remaining % (GSPT1) | IKZF1 substrate protein remaining % (IKZF1) | CK1α substrate protein remaining % (CK1α) |
| --- | --- | --- | --- | --- | --- | --- |
| O=C1CCN(N2C(=O)c3ccc(CN4CCN(c5cccc(F)c5)CC4)cc3C2=O)C(=O)N1 [GT-06724, 2-(2,4-dioxotetrahydropyrimidin-1(2H)-yl)-5-((4-(3-fluorophenyl)piperazin-1-yl)methyl)isoindoline-1,3-dione] | B ("B" is defined as 80%< substrate protein remaining %≤ 100%) | B ("B" is defined as 80%< substrate protein remaining %≤ 100%) | A ("A" is defined as 0% ≤ substrate protein remaining % ≤ 80%) | B ("B" is defined as 80%< substrate protein remaining %≤ 100%) | A ("A" is defined as 0% ≤ substrate protein remaining % ≤ 80%) | B ("B" is defined as 80%< substrate protein remaining %≤ 100%) |
| O=C1CCN(N2C(=O)c3ccc(CN4CCN(c5ccc(F)cc5)CC4)cc3C2=O)C(=O)N1 [GT-06725, 2-(2,4-dioxotetrahydropyrimidin-1(2H)-yl)-5-((4-(4-fluorophenyl)piperazin-1-yl)methyl)isoindoline-1,3-dione] | B ("B" is defined as 80%< substrate protein remaining %≤ 100%) | B ("B" is defined as 80%< substrate protein remaining %≤ 100%) | B ("B" is defined as 80%< substrate protein remaining %≤ 100%) | B ("B" is defined as 80%< substrate protein remaining %≤ 100%) | A ("A" is defined as 0% ≤ substrate protein remaining % ≤ 80%) | B ("B" is defined as 80%< substrate protein remaining %≤ 100%) |
| O=C1CCN(N2C(=O)c3ccc(CN4CCN(c5ccccc5Cl)CC4)cc3C2=O)C(=O)N1 [GT-06726, 5-((4-(2-chlorophenyl)piperazin-1-yl)methyl)-2-(2,4-dioxotetrahydropyrimidin-1(2H)-yl)isoindoline-1,3-dione] | A ("A" is defined as 0% ≤ substrate protein remaining % ≤ 80%) | A ("A" is defined as 0% ≤ substrate protein remaining % ≤ 80%) | A ("A" is defined as 0% ≤ substrate protein remaining % ≤ 80%) | B ("B" is defined as 80%< substrate protein remaining %≤ 100%) | B ("B" is defined as 80%< substrate protein remaining %≤ 100%) | A ("A" is defined as 0% ≤ substrate protein remaining % ≤ 80%) |
| O=C1CCN(N2C(=O)c3ccc(CN4CCN(c5ccccc5Br)CC4)cc3C2=O)C(=O)N1 [GT-06727, 5-((4-(2-bromophenyl)piperazin-1-yl)methyl)-2-(2,4-dioxotetrahydropyrimidin-1(2H)-yl)isoindoline-1,3-dione] | A ("A" is defined as 0% ≤ substrate protein remaining % ≤ 80%) | A ("A" is defined as 0% ≤ substrate protein remaining % ≤ 80%) | B ("B" is defined as 80%< substrate protein remaining %≤ 100%) | B ("B" is defined as 80%< substrate protein remaining %≤ 100%) | B ("B" is defined as 80%< substrate protein remaining %≤ 100%) | A ("A" is defined as 0% ≤ substrate protein remaining % ≤ 80%) |
| COc1ccc(N2CCN(Cc3ccc4c(c3)C(=O)N(N3CCC(=O)NC3=O)C4=O)CC2)cc1 [GT-06728, 2-(2,4-dioxotetrahydropyrimidin-1(2H)-yl)-5-((4-(4-methoxyphenyl)piperazin-1-yl)methyl)isoindoline-1,3-dione] | A ("A" is defined as 0% ≤ substrate protein remaining % ≤ 80%) | A ("A" is defined as 0% ≤ substrate protein remaining % ≤ 80%) | B ("B" is defined as 80%< substrate protein remaining %≤ 100%) | B ("B" is defined as 80%< substrate protein remaining %≤ 100%) | B ("B" is defined as 80%< substrate protein remaining %≤ 100%) | A ("A" is defined as 0% ≤ substrate protein remaining % ≤ 80%) |
| COc1ccc(N2CCN(Cc3ccc4c(c3)CN(N3CCC(=O)NC3=O)C4=O)CC2)cc1 [GT-06767, 1-(5-((4-(4-methoxyphenyl)piperazin-1-yl)methyl)-1-oxoisoindolin-2-yl)dihydropyrimidine-2,4(1H,3H)-dione] | A ("A" is defined as 0% ≤ substrate protein remaining % ≤ 80%) | A ("A" is defined as 0% ≤ substrate protein remaining % ≤ 80%) | A ("A" is defined as 0% ≤ substrate protein remaining % ≤ 80%) | A ("A" is defined as 0% ≤ substrate protein remaining % ≤ 80%) | A ("A" is defined as 0% ≤ substrate protein remaining % ≤ 80%) | A ("A" is defined as 0% ≤ substrate protein remaining % ≤ 80%) |
| O=C1CCN(N2Cc3cc(CN4CCN(c5ccc(Br)cc5)CC4)ccc3C2=O)C(=O)N1 [GT-06768, 1-(5-((4-(4-bromophenyl)piperazin-1-yl)methyl)-1-oxoisoindolin-2-yl)dihydropyrimidine-2,4(1H,3H)-dione] | B ("B" is defined as 80%< substrate protein remaining %≤ 100%) | A ("A" is defined as 0% ≤ substrate protein remaining % ≤ 80%) | A ("A" is defined as 0% ≤ substrate protein remaining % ≤ 80%) | A ("A" is defined as 0% ≤ substrate protein remaining % ≤ 80%) | B ("B" is defined as 80%< substrate protein remaining %≤ 100%) | A ("A" is defined as 0% ≤ substrate protein remaining % ≤ 80%) |
| Cc1ccccc1N1CCN(Cc2ccc3c(c2)CN(N2CCC(=O)NC2=O)C3=O)CC1 [GT-06769, 1-(1-oxo-5-((4-(o-tolyl)piperazin-1-yl)methyl)isoindolin-2-yl)dihydropyrimidine-2,4(1H,3H)-dione] | A ("A" is defined as 0% ≤ substrate protein remaining % ≤ 80%) | A ("A" is defined as 0% ≤ substrate protein remaining % ≤ 80%) | A ("A" is defined as 0% ≤ substrate protein remaining % ≤ 80%) | A ("A" is defined as 0% ≤ substrate protein remaining % ≤ 80%) | B ("B" is defined as 80%< substrate protein remaining %≤ 100%) | A ("A" is defined as 0% ≤ substrate protein remaining % ≤ 80%) |
